In patent US20060099712A1, “Correlation of anti-cancer activity of dyes with redox potentials” (Eastman Kodak Company, priority 2004, published 2006):

System: CX-1 Human Colon Carcinoma
Experiment: Clonogenic dye screening assay, CX-1 cells (IC50)
Assay type: cell-based
Set-up: CX: unit not given here
Settings: for CX: CX-1 cells; for CV/CX: selectivity ratio of IC50 values; for CX (IC50 in the CX-1 cell line): 3 hrs treatment, colonies after 7-10 days, unit from method b117-118; for CV/CX (selectivity, kill ratio): ratio of IC50 in normal CV-1 line to IC50 in carcinoma CX-1 line
Source text: CX-1 is a cancerous human colon adenocarcinoma cell line. CV-1 is a non-cancerous control, which is a kidney epithelial cell line from an African green monkey. IC50 is the dye concentration at which 50% of the cells are killed. Selectivity or kill ratio is defined as the ratio of […] at IC50 for both CX-1 and CV-1. A ratio with a high number indicates a high selectivity.
The dyes were screened in two cell lines. CX-1 is a human colon adenocarcinoma cell line. CV-1 is a kidney epithelial cell line from an African green monkey. CV-1 was used as a reference because no normal human epithelial cell line is available for clonogenic assay.
In the initial screen, dyes were examined at six different concentrations to generate a dose response curve. An IC50 value, the concentration at which 50% of the cells are killed, was then calculated. Initially, a dye concentration of 1.0 μg/mL was the highest examined for the CX-1 cell line and 0.005 μg/mL was the lower limit. The corresponding limits on the CV-1 cell line were […].
The screening procedure used a response curve that was determined from eight dye concentrations. The upper and lower limits of CX-1 were 0.32 and 0.0015 μg/mL, respectively, and the corresponding revised limits on CV-1 were 3.2 and 0.025 μg/mL. The screening results were reported by assigning an IC50 value to each dye for the CV-1 and CX-1 cell lines. These values will be referred to herein simply as CV and CX. The most desirable result would be to have a dye that was highly toxic to carcinoma cells but nontoxic to ‘normal’ cells. One measure of this type of selectivity is the ratio of the IC50's in the normal cell line to that in the carcinoma line, CV/CX.
Compounds are screened via an in vitro assay. CV-1 and CX-1 cells are seeded into separate assay plates. The plates are treated with varying concentrations of test compounds, rinsed, and colonies allowed to grow. IC50's are determined and drugs evaluated based on their selectivity and toxicity. Assay Steps: • I. Seeding Cells • II. Weighing • III. Preparation of Solution • IV. Treatment • V. Rinsing and Feeding • VI. Fixing • VII. IC50 Determination I. Seeding Cells
The cells should be seeded 16-30 hours before treatment. The media for CV-1 cells is DME+5% calf serum +5% Nuserum. The media for CX-1 cells is RPMI/DME (50/50)+5% calf serum +5% Nuserum.
(c) number of cells based on 2000 CX-1 cells/well and 1000 CV-1 cells/well. NOTE: Always make enough cell suspension for 1 extra plate to allow for volume loss during transfers.
• (a) For CV-1: 256 ug/ml-256 ul of 1 mg/ml stock +744 ul DMSO • (b) For CX-1: 25.6 ug/ml-100 ul of 256 ug/ml+900 ul DMSO IV. Treatment • 1. Each plate is treated with 4 test compounds, one positive control and one negative control. • 2. Serial dilutions of the compounds are made in the following way:
2 multi-well pipetters are used. One is set for 10 ul and one for 200 ul. Each is equipped with 6 tips spaced such that they fit into the 6 rows of a plate. 390 ul of media is added to the first column of each plate. 10 ul each of 4 compound solutions, a positive and a negative control are taken up and put into the first column of wells. The 200 ul pipetter is then placed in the same wells, pipetted up and down 3 times and two 200 ul aliquots are moved to the next column of wells. This column is pipetted up and down 3 times and 400 ul moved to column 3, etc. The final 400 ul excess from column 8 is discarded.
• 3. Label the plates along the front, each row −1 compound. • 4. Incubate the plates at 37° C. for 3 hrs. V. Rinsing • 1. Prepare several bottles of CX-1 and CV-1 media. • 2. Check for precipitate in first column of each plate and note. • 3. Starting with the plates treated first, rinse several plates at a time by aspirating the treatments and refilling each well with 0.5-1.0 ml of the rinse media. Aspirate and refill 2 more times for a total of 3 rinses. • 4.

[1] = Table XVII, benzotellurazole derivatives

CX (IC50 in the CX-1 cell line)	Structure (SMILES)	CV/CX (selectivity, kill ratio)	further results
–	CCN1/C(=C/C(C)=C/c2[te]c3ccc(C)cc3[n+]2CC)Sc2ccc(Cl)cc21 [R=E, X=S, Z1=5-Me, R2=Me, Z2=5-Cl]	–	CX [1]: 0.10; CV/CX (Table XVII): 10.0
–	CCN1/C(=C/C(C)=C/c2[te]c3ccc(C)cc3[n+]2CC)Sc2ccc(OC)cc21 [R=E, X=S, Z1=5-Me, R2=Me, Z2=5-MeO]	–	CX [1]: 0.03; CV/CX (Table XVII): 33.3
–	CCN1/C(=C/C(C)=C/c2[te]c3ccc(C)cc3[n+]2CC)Sc2ccccc21 [R=E, X=S, Z1=5-Me, R2=Me, Z2=H]	–	CX [1]: 0.03; CV/CX (Table XVII): 26.6
–	CCN1/C(=C/C(=C/c2[te]c3ccc(C)cc3[n+]2CC)c2ccccc2)Sc2ccccc21 [R=E, X=S, Z1=5-Me, R2=Ph, Z2=H]	–	CX [1]: 0.3; CV/CX (Table XVII): 30.0
–	CCN1/C(=C/C(=C/c2[te]c3ccc(OC)cc3[n+]2CC)c2ccccc2)Sc2ccccc21 [R=E, X=S, Z1=5-MeO, R2=Ph, Z2=H]	–	CX [1]: 0.3; CV/CX (Table XVII): 26.6
–	CCN1C(=CC=Cc2[te]c3ccc(C)cc3[n+]2CC)[Te]c2ccc(C)cc21 [R=E, X=Te, Z1=5-Me, R2=H, Z2=5-Me]	–	CX [1]: 0.052; CV/CX (Table XVII): 7.7
–	CN1/C(=C/C=C/c2[te]c3ccc(O)cc3[n+]2C)[Te]c2ccc(O)cc21 [R=M, X=Te, Z1=5-OH, R2=H, Z2=5-OH]	–	CV/CX (Table XVII): 7.6
–	CN1C(=CC=Cc2[te]c3ccccc3[n+]2C)[Te]c2ccccc21 [R=M, X=Te, Z1=H, R2=H, Z2=H]	–	CX [1]: 0.30; CV/CX (Table XVII): 16.7
–	CCN1/C(=C/C=C/c2[te]c3cc(OC)c(OC)cc3[n+]2C)Sc2ccccc21 [R=M/E, X=S, Z1=5,6-MeO, R2=H, Z2=H]	–	CX [1]: 0.5; CV/CX (Table XVII): 2.0
–	CCN1C(=CC=Cc2sc3ccccc3[n+]2CC)N(CC)c2cc(Cl)c(Cl)cc21 [benzimidazole(5,6-Cl)]	–	CX (Table XVI, unsymmetrical dyes): 0.260; CV/CX (Table XVI): 0.8
–	CCN1/C(=C/C=C/c2sc3c([n+]2C)CCCC3)Sc2ccccc21.[I-] [benzothiazole(4,5,6,7-H)]	–	CX (Table XVI, unsymmetrical dyes): <0.005; CV/CX (Table XVI): >60.0
>0.32 µg/mL	O=C(C[n+]1c(/C=C/C=C2/Nc3ccccc3S2)sc2ccccc21)N1CCOCC1 [drawing 36|CC(═O)morpholino|H]	10.0	–
>0.32 µg/mL	CCSC(CCN1/C(=C/C=C/c2sc3ccccc3[n+]2CCC(SCC)SCC)Sc2ccccc21)SCC [drawing 36|CCC(SEt)2|CCC(SEt)2]	<4.1	–
>0.32 µg/mL	OCCN1C(=CC=Cc2sc3ccccc3[n+]2CCO)Sc2ccccc21 [drawing 36|CCOH|CCOH]	10.0	CV/CX (selectivity, kill ratio) (listed as N,N′-di(2-hydroxyethyl) dye): not active
0.015 µg/mL	CSCCN1/C(=C\C=C\c2sc3ccccc3[n+]2CCSC)Sc2ccccc21 [drawing 36|CCSMe|CCSMe]	12	–
0.03 µg/mL	C=C(Br)C[n+]1c(/C=C/C=C2\Oc3ccccc3N2CC)sc2ccccc21 [drawing 37|CC(Br)═C|Et]	33.3	–
–	CCN1/C(=C/C=C/c2sc3ccccc3[n+]2CC(N)=O)Oc2ccccc21 [drawing 37|CC(═O)N|Et]	>10.0	–
0.3 µg/mL	CCN1/C(=C/C=C/c2sc3ccccc3[n+]2CC(=O)c2ccc(O)cc2O)Oc2ccccc21 [drawing 37|CC(═O)Ph-2,4-OH|Et]	>33.3	–
>1.0 µg/mL	CCN1/C(=C\C=C\c2sc3ccccc3[n+]2CC(=O)c2ccc(O)c(O)c2)Oc2ccccc21 [drawing 37|CC(═O)Ph-3,4-OH|Et]	10.0	–

CX (IC50 in the CX-1 cell line)	Structure (SMILES)	CV/CX (selectivity, kill ratio)	further results
0.3 µg/mL	CCN1/C(=C/C=C/c2sc3ccccc3[n+]2CC(=O)c2ccccc2)Oc2ccccc21 [drawing 37|CC(═O)Ph|Et]	10.0	–
>1.0 µg/mL	CCN1/C(=C/C=C/c2sc3ccccc3[n+]2CC(=O)N2CCOCC2)Oc2ccccc21 [drawing 37|CC(═O)morpholino|Et]	10.0	–
0.03 µg/mL	CCN1/C(=C/C=C/c2sc3ccccc3[n+]2CCC(=O)N(c2ccccc2)C(C)C)Oc2ccccc21 [drawing 37|CCC(═0)N(iPr)Ph|Et]	26.7	–
>1.0 µg/mL	CCC=NNC(N)=S [drawing 37|CCC═NNC(═S)N|Et]	10.0	–
0.3 µg/mL	CCN1/C(=C/C=C/c2sc3ccccc3[n+]2CCC=NNS(=O)(=O)c2ccc(C)cc2)Oc2ccccc21 [drawing 37|CCC═NNSO2Ph-4C|Et]	33.3	–
0.1 µg/mL	CCN1/C(=C/C=C/c2sc3ccccc3[n+]2CCC=O)Oc2ccccc21 [drawing 37|CCC═O|Et]	50.0	–
0.3 µg/mL	CCN1/C(=C/C=C/c2sc3ccccc3[n+]2CCNS(=O)(=O)c2ccc(C)cc2)Oc2ccccc21 [drawing 37|CCNSO2Ph-4C|Et]	26.7	–
0.3 µg/mL	CCN1/C(=C/C=C/c2sc3ccccc3[n+]2CCS(=O)(=O)CC)Oc2ccccc21 [drawing 37|CCSO2CC|Et]	>33.3	–
0.3 µg/mL	CCN(CC)C(=O)C[n+]1c(/C=C/C=C2\Oc3ccccc3N2CC)sc2ccccc21 [drawing 37|Cc(═0)N(Et)2|Et]	>33.3	–
0.8 µg/mL	CC[n+]1c(/C=C/C=C2\Oc3ccccc3N2CC(=O)c2ccccc2)sc2ccccc21 [drawing 37|Et|C(C═O)Ph]	3.7	–
0.1 µg/mL	CC[n+]1c(/C=C/C=C2\Oc3ccccc3N2CC(F)(F)F)sc2ccccc21 [drawing 37|Et|CC(F)3]	50.0	–
0.008 µg/mL	CC[n+]1c(/C=C(/C=C2\Sc3ccccc3N2C)SC)sc2ccccc21 [drawing 38|E/M|H|SMe|H]	37.5	–
0.07 µg/mL	CC[n+]1c(/C=C(/C=C2\Sc3ccccc3N2C)Sc2ccccc2)sc2ccccc21 [drawing 38|E/M|H|SPh|H]	10.0	–
0.16 µg/mL	CCN1C(=CC(=Cc2sc3ccccc3[n+]2CC)c2cccs2)Sc2ccccc21 [drawing 38|E|H|2Thienyl|H]	10.0	–
–	CCN1/C(=C/C(=C/c2sc3ccccc3[n+]2CC)C(=S)SC)Sc2ccccc21 [drawing 38|E|H|C(═S)SC|H]	>10.0	–
>0.32 µg/mL	CCN1/C(=C/C(=C/c2sc3ccccc3[n+]2CC)C(=S)[S-])Sc2ccccc21 [drawing 38|E|H|C(═S)S—|H]	<8.7	–
–	CCC(=Cc1sc2ccccc2[n+]1CC)C=C1Sc2ccccc2N1CC [drawing 38|E|H|Et|H]	10.0	–
–	CCN1C(=CC(C)=Cc2sc3ccccc3[n+]2CC)Sc2ccccc21 [drawing 38|E|H|Me|H]	8.0	–
0.24 µg/mL	CCN1C(=CC(=Cc2sc3ccccc3[n+]2CC)SC)Sc2ccccc21 [drawing 38|E|H|SMe|H]	1.25	–
